# Source: US8053585B2, “Protecting group for carboxylic acids that can be photolyzed by visible light” (Cornell Research Foundation, Inc., priority 2006, dated 2011)
# System: GluR6 glutamate receptor
# Test: Laser-pulse photolysis of DECM-caged glutamate on HEK 293 cells
# Type: cell-based
# Conditions: 2 mM caged compound, −60 mV, pH 7.4, 22° C.
# Protocol: The cells were used for electrophysiological experiments between 24 and 72 h after each passage. Whole-cell currents evoked by glutamate or glycine (100 μM) were recorded using the whole-cell configuration (Hamill et al., “Improved Patch-Clamp Techniques for High-Resolution Current Recording From Cells and Cell-Free Membrane Patches,” Pfluegers Arch 391:85-100 (1981), which is hereby incorporated by reference in its entirety) at room temperature, −60 mV, and pH 7.4. The experiments using DECM-caged glutamate were carried out in the absence or presence of 2 mM DECM-caged glutamate (FIG. 5A) or 1 mM 7-N,N-diethylamino-4-hydroxymethylcoumarin (2) (FIG. 5B). Alternatively, the experiments using DECM-caged glycine were carried out in the absence or presence of 1 mM DECM-caged-glycine (FIG. 10). The solution in the recording pipet contained 120 mM CsCl, 10 mM EGTA, and 10 mM HEPES, adjusted to pH 7.4. The HEK cell bath solution contained 150 mM NaCl, 1 mM CaCl2, 10 mM HEPES, pH 7.4. The resistance of the recording electrode filled with buffer solution was typically 3-5 MΩ and the series resistance was 5-6 MΩ. […]
# The laser light produced by the Exalite (Exiton Inc., Dayton, Ohio) 404 dye (≧400 nm) was coupled into an optical fiber (300 μm internal diameter), which delivered the light to the cell. […] Data were analyzed with Microcal Origin3.5 software (Microcal, Northampton, Mass.).
structure (smiles),measurement,value
"CCN(CC)c1ccc2c(COC(=O)CCC(N)C(=O)O)cc(=O)oc2c1 (centres unmarked) [DECM-caged glutamate, (7-N,N-Diethylaminocoumarin-4-yl)-methyl-glutamate-trifluoroacetate]","I∞, current at t=∞",−1590 pA
same,"kobs, apparent pseudo-first-order rate constant of the current rise",765 ± 14 s⁻¹
